# Source: US10251394B2, “Molecules having pesticidal utility, and intermediates, compositions, and processes, related thereto” (Dow AgroSciences LLC, priority 2016, dated 2019)
# Tests used:
# Assay type in all cases: in vivo
# [1] = tested on: Beet Armyworm (Spodoptera exigua); assay: Bioassay on Beet Armyworm (BAW), 128-well diet tray assay; settings: Beet Armyworm, Table ABC, read-out: BAW rating
# Procedure, shortened: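 Second-instar larvae (one to five per well) placed on artificial diet surface-treated with 50 μg/cm^2 test molecule in 90:10 acetone-water, dried, eight wells per molecule. Held at 25° C, 14:10 light-dark, five to seven days; percent mortality recorded per well and averaged across the eight wells.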
# [2] = tested on: Cabbage Looper (Trichoplusia ni); assay: Bioassay on Cabbage Looper (CL), 128-well diet tray assay; settings: Cabbage Looper, Table ABC, read-out: CL rating
# Procedure, shortened: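 Second-instar larvae, one to five per well, placed on artificial diet surface-treated with 50 μg/cm^2 compound in acetone-water, eight wells per compound. Held 5-7 days at 25° C, 14:10 light-dark; percent mortality per well averaged across wells.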
# [3] = tested on: Yellow Fever Mosquito (Aedes aegypti); assay: Bioassay on Yellow Fever Mosquito (YFM) larvae, 96-well plate; settings: Table ABC
# Procedure, shortened: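 About 1-day-old larvae in water with liver powder were added to wells holding compound from a 4000 ppm DMSO master diluted in 90:10 water:acetone. Plates covered and kept at room temperature for 3 days, then each well scored for mortality on a rating scale.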
SMILES,pest or weed control at 50 µg/cm2 [1],pest or weed control at 50 µg/cm2 [2],YFM rating [3]
"O=C(NC1(C(=O)NCC(F)(F)F)CC1)c1ccc(/C(F)=C/C(c2cc(Br)cc(Br)c2)C(F)(F)F)cc1C(F)(F)F (stereo not drawn) [F34, (Z)-4-(3-(3,5-dibromophenyl)-1,4,4,4-tetrafluorobut-1-en-1-yl)-N-(1-((2,2,2-trifluoroethyl)carbamoyl)cyclopropyl)-2-(trifluoromethyl)benzamide]",50 to 100%,50 to 100%,A (80-100)
CN(CC(F)(F)F)C(=O)C1(NC(=O)c2ccc(/C(F)=C/C(c3ccc(F)c(Cl)c3)C(F)(F)F)cc2C(F)(F)F)CC1 (stereo not drawn) [PF10],50 to 100%,50 to 100%,A (80-100)
"C[C@@H](NC(=O)c1ccc(/C(F)=C/C(c2cc(Cl)c(C(F)F)c(Cl)c2)C(F)(F)F)cc1C(F)(F)F)C(=O)NCC(F)(F)F (stereo partly drawn) [F142, 4-((Z)-3-(3,5-Dichloro-4-(difluoromethyl)phenyl)-1,4,4,4-tetrafluorobut-1-en-1-yl)-N—((R)-1-oxo-1-((2,2,2-trifluoroethyl)amino)propan-2-yl)-2-(trifluoromethyl)benzamide]",50 to 100%,50 to 100%,A (80-100)
"C[C@@H](NC(=O)c1ccc(/C(F)=C/C(c2ccc(C(F)(F)F)c(Br)c2)C(F)(F)F)cc1C(F)(F)F)C(=O)NCC(F)(F)F (stereo partly drawn) [F208, 4-((Z)-3-(3-Bromo-4-(trifluoromethyl)phenyl)-1,4,4,4-tetrafluorobut-1-en-1-yl)-N—((R)-1-oxo-1-((2,2,2-trifluoroethyl)amino)propan-2-yl)-2-(trifluoromethyl)benzamide]",50 to 100%,50 to 100%,A (80-100)
"C[C@@H](NC(=O)c1ccc(/C(F)=C/C(c2ccc(Cl)c(F)c2)C(F)(F)F)cc1C(F)(F)F)C(=O)NCC(F)(F)F (stereo partly drawn) [PF19, 4-((Z)-3-(4-Chloro-3-fluorophenyl)-1,4,4,4-tetrafluorobut-1-en-1-yl)-N—((R)-1-oxo-1-((2,2,2-trifluoroethyl)amino)propan-2-yl)-2-(trifluoromethyl)benzamide]",50 to 100%,50 to 100%,B (More than 0-Less than 80)
"Cc1cc(C(/C=C(\F)c2ccc(C(=O)NCC(=O)NCC(F)(F)F)c(C(F)(F)F)c2)C(F)(F)F)cc(C)c1Cl (stereo not drawn) [F71, (Z)-4-(3-(4-Chloro-3,5-dimethylphenyl)-1,4,4,4-tetrafluorobut-1-en-1-yl)-N-(2-oxo-2-((2,2,2-trifluoroethyl)amino)ethyl)-2-(trifluoromethyl)benzamide]",50 to 100%,50 to 100%,B (More than 0-Less than 80)
"C/C=C/c1c(Cl)cc(C(/C=C(\F)c2ccc(C(=O)N[C@H](C)C(=O)NCC(F)(F)F)c(C(F)(F)F)c2)C(F)(F)F)cc1Cl (stereo partly drawn) [F147, 4-((Z)-3-(3,5-Dichloro-4-((E)-prop-1-en-1-yl)phenyl)-1,4,4,4-tetrafluorobut-1-en-1-yl)-N—((R)-1-oxo-1-((2,2,2-trifluoroethyl)amino)propan-2-yl)-2-(trifluoromethyl)benzamide]",50 to 100%,50 to 100%,A (80-100)
"O=C(CNC(=O)c1ccc(/C(F)=C/C(c2ccc(Cl)c(Cl)c2)C(F)(F)F)cc1C(F)(F)F)NCC(F)(F)F (stereo not drawn) [F43, (Z)-4-(3-(3,4-Dichlorophenyl)-1,4,4,4-tetrafluorobut-1-en-1-yl)-N-(2-oxo-2-((2,2,2-trifluoroethyl)amino)ethyl)-2-(trifluoromethyl)benzamide]",50 to 100%,50 to 100%,A (80-100)
"CCN1OC[C@@H](NC(=O)c2ccc(/C(F)=C/C(c3cc(Cl)c(Cl)c(Cl)c3)C(F)(F)F)cc2C(F)(F)F)C1=O (stereo partly drawn) [F53, N—((R)-2-Ethyl-3-oxoisoxazolidin-4-yl)-4-((Z)-1,4,4,4-tetrafluoro-3-(3,4,5-trichlorophenyl)but-1-en-1-yl)-2-(trifluoromethyl)benzamide]",50 to 100%,50 to 100%,A (80-100)
